Measured values from ChEMBL document CHEMBL4020826 (J Med Chem, 2018).

Legend:
[1] = biological target: CYP2D6 (Homo sapiens, UniProt P10635); assay: Inhibition of human CYP2D6 at 10 uM; assay type: ADME
[2] = Drug level in Sprague-Dawley rat CSF at 0.3 mg/kg, sc administered as single dose measured after 1 hr post dose by LC-MS/MS analysis; assay type: ADME, organism-based, Cerebrospinal fluid; conditions: read-out: Drug uptake
[3] = Plasma concentration in Sprague-Dawley rat at 1.5 mg/kg/day, sc administered via infusion measured after 72 hrs post dose by LC-MS/MS analysis; assay type: ADME, organism-based
[4] = Plasma concentration in Sprague-Dawley rat at 0.5 mg/kg/day, sc administered via infusion measured after 72 hrs post dose by LC-MS/MS analysis; assay type: ADME, organism-based
[5] = system: Rattus norvegicus; assay: Toxicity in Sprague-Dawley rat assessed as reduction in spontaneous locomotive activity at 30 mg/kg, sc after 30 mins; assay type: organism-based; design: scale not given: the % may be the effect or the level left; conditions: in vivo, 0.5 h
[6] = species: Rattus norvegicus; assay: Drug metabolism in Sprague-Dawley rat assessed as (1S,2S,4S,5R,6S)-2-Amino-4-[(3-hydroxybenzoyl)amino]-bicyclo[3.1.0]hexane-2,6-dicarboxylic Acid formation measured over 24 hrs; assay type: ADME
[7] = biological target: Metabotropic glutamate receptor 6 (Homo sapiens, UniProt O15303); assay: Agonist activity at human mGlu6 receptor expressed in hamster AV12 cells co-expressing rat EAAT1 assessed as inhibition of forskolin-stimulated cAMP formation after 20 mins by HTRF assay; assay type: functional, cell-based
[8] = Plasma concentration in Sprague-Dawley rat at 0.5 mg/kg/day, sc administered via infusion measured after 24 hrs post dose by LC-MS/MS analysis; assay type: ADME, organism-based
[9] = Plasma concentration in Sprague-Dawley rat at 1 mg/kg, sc administered as single dose measured after 1 hr post dose by LC-MS/MS analysis; assay type: ADME, organism-based
[10] = biological target: T1, Metabotropic glutamate receptor 7 (Homo sapiens, UniProt Q14831); assay: Agonist activity at recombinant human mGlu7 receptor expressed in hamster AV12 cells co-expressing rat EAAT1/Galpha15 assessed as induction of increase in Ca2+ flux after 2.5 mins by Fluo-3 AM dye-based FLIPR assay; assay type: functional, cell-based
T1 sequence (Q14831 whole entry): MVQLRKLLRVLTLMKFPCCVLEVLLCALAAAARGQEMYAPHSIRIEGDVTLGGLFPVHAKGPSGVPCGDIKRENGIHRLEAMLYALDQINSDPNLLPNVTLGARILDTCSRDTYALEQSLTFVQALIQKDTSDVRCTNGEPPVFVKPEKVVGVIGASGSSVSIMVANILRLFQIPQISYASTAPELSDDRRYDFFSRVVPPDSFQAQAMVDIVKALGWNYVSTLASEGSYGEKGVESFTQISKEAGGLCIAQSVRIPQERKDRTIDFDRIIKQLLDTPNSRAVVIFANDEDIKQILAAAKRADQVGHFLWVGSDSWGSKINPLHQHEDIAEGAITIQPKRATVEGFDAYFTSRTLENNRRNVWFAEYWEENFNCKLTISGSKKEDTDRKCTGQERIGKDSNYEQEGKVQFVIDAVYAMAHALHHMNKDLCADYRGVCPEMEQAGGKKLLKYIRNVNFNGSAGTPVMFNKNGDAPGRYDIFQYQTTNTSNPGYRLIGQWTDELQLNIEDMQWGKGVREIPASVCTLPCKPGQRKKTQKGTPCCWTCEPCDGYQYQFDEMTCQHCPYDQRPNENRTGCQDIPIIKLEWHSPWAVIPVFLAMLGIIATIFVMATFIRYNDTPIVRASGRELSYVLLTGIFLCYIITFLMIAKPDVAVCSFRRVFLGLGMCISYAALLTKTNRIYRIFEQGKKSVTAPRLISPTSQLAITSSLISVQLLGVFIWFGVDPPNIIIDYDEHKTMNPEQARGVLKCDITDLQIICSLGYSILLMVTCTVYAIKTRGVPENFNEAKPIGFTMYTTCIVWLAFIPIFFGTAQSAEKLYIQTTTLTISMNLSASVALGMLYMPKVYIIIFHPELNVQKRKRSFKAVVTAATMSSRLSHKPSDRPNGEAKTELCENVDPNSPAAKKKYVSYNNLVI

[11] = biological target: T2, Metabotropic glutamate receptor 8 (Homo sapiens, UniProt O00222); assay: Agonist activity at recombinant human mGlu8 receptor expressed in hamster AV12 cells co-expressing rat EAAT1/Galpha15 assessed as induction of increase in Ca2+ flux after 2.5 mins by Fluo-3 AM dye-based FLIPR assay; assay type: functional, cell-based
T2 sequence (O00222 whole entry): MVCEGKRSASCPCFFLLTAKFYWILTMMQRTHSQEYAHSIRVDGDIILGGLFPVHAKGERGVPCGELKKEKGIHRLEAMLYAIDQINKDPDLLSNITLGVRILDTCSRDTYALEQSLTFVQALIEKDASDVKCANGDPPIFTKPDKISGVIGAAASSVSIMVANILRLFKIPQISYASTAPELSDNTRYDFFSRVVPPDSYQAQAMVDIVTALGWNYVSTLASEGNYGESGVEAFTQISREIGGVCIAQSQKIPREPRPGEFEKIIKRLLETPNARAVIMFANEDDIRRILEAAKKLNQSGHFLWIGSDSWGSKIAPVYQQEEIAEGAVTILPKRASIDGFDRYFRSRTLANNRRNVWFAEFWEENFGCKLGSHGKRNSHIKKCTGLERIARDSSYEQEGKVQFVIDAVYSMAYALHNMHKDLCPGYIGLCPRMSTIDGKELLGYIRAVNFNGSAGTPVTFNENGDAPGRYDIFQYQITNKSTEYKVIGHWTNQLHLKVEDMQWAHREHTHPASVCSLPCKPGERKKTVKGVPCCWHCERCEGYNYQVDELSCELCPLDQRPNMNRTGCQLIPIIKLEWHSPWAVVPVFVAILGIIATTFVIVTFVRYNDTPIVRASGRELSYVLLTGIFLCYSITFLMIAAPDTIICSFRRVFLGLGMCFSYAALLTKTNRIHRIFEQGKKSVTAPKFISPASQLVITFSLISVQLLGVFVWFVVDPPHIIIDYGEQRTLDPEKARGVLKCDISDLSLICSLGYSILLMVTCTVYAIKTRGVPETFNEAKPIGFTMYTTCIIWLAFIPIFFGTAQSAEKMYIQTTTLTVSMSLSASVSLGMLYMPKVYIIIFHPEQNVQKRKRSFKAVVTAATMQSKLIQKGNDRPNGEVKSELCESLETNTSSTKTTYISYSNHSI

[12] = Drug metabolism in rat liver microsomes at 4 uM; assay type: ADME, microsome; conditions: read-out: Drug metabolism
[13] = biological target: Metabotropic glutamate receptor 4 (Homo sapiens, UniProt Q14833); assay: Agonist activity at recombinant human mGlu4 receptor expressed in hamster AV12 cells co-expressing rat EAAT1/Galpha15 assessed as induction of increase in Ca2+ flux after 2.5 mins by Fluo-3 AM dye-based FLIPR assay; assay type: functional, cell-based
[14] = Plasma concentration in Sprague-Dawley rat at 3 mg/kg, sc administered as single dose measured after 1 hr post dose by LC-MS/MS analysis; assay type: ADME, organism-based
[15] = biological target: T1, Metabotropic glutamate receptor 7; assay: Antagonist activity at recombinant human mGlu7 receptor expressed in hamster AV12 cells co-expressing rat EAAT1/Galpha15 assessed as inhibition of glutamate induced increase in Ca2+ flux after 2.5 mins by Fluo-3 AM dye-based FLIPR assay; assay type: functional, cell-based
[16] = Cmax in Sprague-Dawley rat at 3 mg/kg, sc measured over 8 hrs by LC-MS/MS analysis; assay type: ADME, organism-based; design: dose 3 mg/kg, route subcutaneous; conditions: in vivo
[17] = biological target: T3, Metabotropic glutamate receptor 2 (Homo sapiens, UniProt Q14416); assay: Displacement of [3H]-LY459477 from recombinant human mGlu2 receptor expressed in HEK cell membranes after 90 mins by liquid scintillation counting
T3 sequence (Q14416 whole entry): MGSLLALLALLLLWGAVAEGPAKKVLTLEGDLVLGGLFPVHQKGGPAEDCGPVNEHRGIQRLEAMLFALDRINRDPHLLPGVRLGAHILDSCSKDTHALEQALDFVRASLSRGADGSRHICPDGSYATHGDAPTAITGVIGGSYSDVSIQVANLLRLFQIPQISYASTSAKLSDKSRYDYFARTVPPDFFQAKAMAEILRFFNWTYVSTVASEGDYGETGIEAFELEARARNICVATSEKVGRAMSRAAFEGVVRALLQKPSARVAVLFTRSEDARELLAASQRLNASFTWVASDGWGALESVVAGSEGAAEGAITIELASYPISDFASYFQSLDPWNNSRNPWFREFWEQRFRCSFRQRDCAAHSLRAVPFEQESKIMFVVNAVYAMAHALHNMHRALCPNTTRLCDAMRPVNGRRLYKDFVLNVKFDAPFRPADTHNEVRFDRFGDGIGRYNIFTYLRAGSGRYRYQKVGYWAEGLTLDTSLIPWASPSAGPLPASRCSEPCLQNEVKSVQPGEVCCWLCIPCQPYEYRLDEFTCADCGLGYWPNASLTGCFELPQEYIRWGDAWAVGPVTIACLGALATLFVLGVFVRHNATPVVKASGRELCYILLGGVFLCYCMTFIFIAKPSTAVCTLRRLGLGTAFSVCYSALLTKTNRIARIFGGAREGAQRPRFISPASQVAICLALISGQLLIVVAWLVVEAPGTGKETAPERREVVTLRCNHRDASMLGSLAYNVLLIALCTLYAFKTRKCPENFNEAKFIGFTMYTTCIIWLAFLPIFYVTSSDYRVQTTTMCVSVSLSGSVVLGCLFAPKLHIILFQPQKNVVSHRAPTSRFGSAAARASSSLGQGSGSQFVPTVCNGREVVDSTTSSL

[18] = biological target: Metabotropic glutamate receptor 1 (Homo sapiens, UniProt Q13255); assay: Antagonist activity at recombinant human mGlu1 receptor expressed in hamster AV12 cells co-expressing rat EAAT1/Galpha15 assessed as inhibition of glutamate induced increase in Ca2+ flux after 2.5 mins by Fluo-3 AM dye-based FLIPR assay; assay type: functional, cell-based
[19] = biological target: T2, Metabotropic glutamate receptor 8; assay: Antagonist activity at recombinant human mGlu8 receptor expressed in hamster AV12 cells co-expressing rat EAAT1/Galpha15 assessed as inhibition of glutamate induced increase in Ca2+ flux after 2.5 mins by Fluo-3 AM dye-based FLIPR assay; assay type: functional, cell-based
[20] = Plasma concentration in Sprague-Dawley rat at 1.5 mg/kg/day, sc administered via infusion measured after 6 hrs post dose by LC-MS/MS analysis; assay type: ADME, organism-based
[21] = Aqueous solubility of the compound at pH 7.4; assay type: physicochemical; conditions: buffer
[22] = species: Rattus norvegicus; assay: Drug metabolism in Sprague-Dawley rat assessed as (1S,2S,4S,5R,6S)-di-tert-butyl 4-amino-2-(tert-butoxycarbonylamino)bicyclo[3.1.0]hexane-2,6-dicarboxylate formation measured over 24 hrs; assay type: ADME
[23] = Tmax in Sprague-Dawley rat at 3 mg/kg, sc measured over 8 hrs by LC-MS/MS analysis; assay type: ADME, organism-based; conditions: in vivo
[24] = Plasma concentration in Sprague-Dawley rat at 5 mg/kg/day, sc administered via infusion measured after 72 hrs post dose by LC-MS/MS analysis; assay type: ADME, organism-based
[25] = biological target: Metabotropic glutamate receptor 5 (Homo sapiens, UniProt P41594); assay: Antagonist activity at recombinant human mGlu5 receptor expressed in hamster AV12 cells co-expressing rat EAAT1/Galpha15 assessed as inhibition of glutamate induced increase in Ca2+ flux after 2.5 mins by Fluo-3 AM dye-based FLIPR assay; assay type: functional, cell-based
Chain of Metabotropic glutamate receptor 5 (P41594 whole entry, the tested form may be a part): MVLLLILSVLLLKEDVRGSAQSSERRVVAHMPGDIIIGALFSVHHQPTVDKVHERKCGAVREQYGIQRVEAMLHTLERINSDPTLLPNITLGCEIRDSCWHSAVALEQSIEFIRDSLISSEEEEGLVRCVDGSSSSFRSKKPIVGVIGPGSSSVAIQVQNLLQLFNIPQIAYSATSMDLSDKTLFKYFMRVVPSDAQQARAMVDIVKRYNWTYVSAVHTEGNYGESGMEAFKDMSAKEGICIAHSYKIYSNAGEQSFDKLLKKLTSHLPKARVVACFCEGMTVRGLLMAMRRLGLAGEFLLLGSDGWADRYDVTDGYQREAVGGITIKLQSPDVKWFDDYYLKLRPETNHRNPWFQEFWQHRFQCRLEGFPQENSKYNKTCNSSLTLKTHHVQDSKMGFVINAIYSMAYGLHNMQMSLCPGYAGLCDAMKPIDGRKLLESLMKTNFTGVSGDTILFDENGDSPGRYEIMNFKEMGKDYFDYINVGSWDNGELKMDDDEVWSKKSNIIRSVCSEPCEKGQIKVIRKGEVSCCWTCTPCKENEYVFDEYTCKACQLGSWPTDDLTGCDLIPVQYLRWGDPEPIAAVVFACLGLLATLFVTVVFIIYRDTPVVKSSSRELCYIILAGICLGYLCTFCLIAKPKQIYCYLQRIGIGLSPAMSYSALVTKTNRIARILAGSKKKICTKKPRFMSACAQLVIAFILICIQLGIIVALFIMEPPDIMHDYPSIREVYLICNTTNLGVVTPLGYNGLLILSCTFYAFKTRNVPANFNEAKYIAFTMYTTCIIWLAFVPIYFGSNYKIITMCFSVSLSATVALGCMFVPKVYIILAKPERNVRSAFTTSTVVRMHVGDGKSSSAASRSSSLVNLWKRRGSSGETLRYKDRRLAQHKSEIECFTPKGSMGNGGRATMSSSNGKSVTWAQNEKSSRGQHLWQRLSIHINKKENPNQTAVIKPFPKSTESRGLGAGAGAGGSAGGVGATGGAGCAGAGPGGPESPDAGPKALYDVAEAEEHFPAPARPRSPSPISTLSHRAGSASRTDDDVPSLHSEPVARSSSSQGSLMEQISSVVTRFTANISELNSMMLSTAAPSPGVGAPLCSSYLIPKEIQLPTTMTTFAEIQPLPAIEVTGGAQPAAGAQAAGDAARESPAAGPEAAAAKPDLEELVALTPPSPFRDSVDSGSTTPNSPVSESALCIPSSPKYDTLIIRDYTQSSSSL

[26] = Plasma concentration in Sprague-Dawley rat at 5 mg/kg/day, sc administered via infusion measured after 6 hrs post dose by LC-MS/MS analysis; assay type: ADME, organism-based
[27] = Drug metabolism in human liver microsomes at 4 uM; assay type: ADME, microsome; conditions: read-out: Drug metabolism
[28] = Plasma concentration in Sprague-Dawley rat at 1.5 mg/kg/day, sc administered via infusion measured after 48 hrs post dose by LC-MS/MS analysis; assay type: ADME, organism-based
[29] = Cmax in Sprague-Dawley rat at 1 mg/kg, iv measured over 8 hrs by LC-MS/MS analysis; assay type: ADME, organism-based; design: dose 1 mg/kg, route intravenous; conditions: in vivo
[30] = biological target: T3, Metabotropic glutamate receptor 2; assay: Agonist activity at human mGlu2 receptor expressed in HEK cells assessed as inhibition of forskolin-stimulated cAMP formation after 20 mins by HTRF assay; assay type: functional, cell-based
[31] = biological target: Group II metabotropic glutamate receptor (mGlu2/mGlu3) (Rattus norvegicus, UniProt P31421+P31422); assay: Displacement of [3H]-LY459477 from mGlu2/3 receptor in Sprague-Dawley rat forebrain primary cortical membranes after 90 mins by liquid scintillation counting
[32] = Plasma concentration in Sprague-Dawley rat at 5 mg/kg/day, sc administered via infusion measured after 48 hrs post dose by LC-MS/MS analysis; assay type: ADME, organism-based
[33] = Plasma concentration in Sprague-Dawley rat at 15 mg/kg/day, sc administered via infusion measured after 12 hrs post dose by LC-MS/MS analysis; assay type: ADME, organism-based
[34] = Half life in Sprague-Dawley rat at 3 mg/kg, sc measured over 8 hrs by LC-MS/MS analysis; assay type: ADME, organism-based; conditions: in vivo
[35] = Plasma concentration in Sprague-Dawley rat at 1.5 mg/kg/day, sc administered via infusion measured after 12 hrs post dose by LC-MS/MS analysis; assay type: ADME, organism-based

Chain of CYP2D6 (P10635 whole entry): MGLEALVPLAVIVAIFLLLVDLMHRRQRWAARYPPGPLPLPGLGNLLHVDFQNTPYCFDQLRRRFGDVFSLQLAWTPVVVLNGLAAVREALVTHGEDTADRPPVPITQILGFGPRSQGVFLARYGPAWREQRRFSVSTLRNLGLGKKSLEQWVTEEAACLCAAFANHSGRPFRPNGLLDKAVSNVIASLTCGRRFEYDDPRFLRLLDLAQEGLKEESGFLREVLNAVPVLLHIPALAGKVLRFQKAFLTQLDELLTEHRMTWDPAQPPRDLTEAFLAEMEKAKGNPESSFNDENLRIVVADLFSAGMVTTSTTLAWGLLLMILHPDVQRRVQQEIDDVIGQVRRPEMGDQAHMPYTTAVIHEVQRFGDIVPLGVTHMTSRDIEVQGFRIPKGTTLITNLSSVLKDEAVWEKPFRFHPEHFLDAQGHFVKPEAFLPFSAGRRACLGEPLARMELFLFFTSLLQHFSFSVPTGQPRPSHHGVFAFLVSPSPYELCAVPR

COc1cccc(C(=O)N[C@H]2C[C@@](N)(C(=O)O)[C@@H]3[C@@H](C(=O)O)[C@@H]32)c1
inhibition at 10 µM [1]: 0%
concentration at 1 h [2]: 6.91 nM
concentration at 72 h [3]: 361 nM
concentration at 72 h [4]: 91.2 nM
Activity [5]: 32%
Drug metabolism [6]: < 2.5 nM
EC50 [7]: 1.95 µM
concentration at 24 h [8]: 124 nM
concentration at 1 h [9]: 1510 to 1580 nM
EC50 [10]: > 25 µM
EC50 [11]: > 25 µM
metabolised at 4 µM [12]: 23%
EC50 [13]: 11.8 µM
concentration at 1 h [14]: 7180 nM
IC50 [15]: > 12.5 µM
Cmax [16]: 6780 nM
Ki [17]: 0.412 µM
IC50 [18]: > 12.5 µM
IC50 [19]: > 12.5 µM
concentration at 6 h [20]: 427 nM
solubility [21]: > 100 µM
Drug metabolism [22]: < 2.5 nM
Tmax [23]: 0.44 h
concentration at 72 h [24]: 1310 nM
IC50 [25]: > 12.5 µM
concentration at 6 h [26]: 1280 nM
metabolised at 4 µM [27]: 12.3%
concentration at 48 h [28]: 224 nM
Cmax [29]: 6390 nM
EC50 [30]: 0.0475 µM
Ki [31]: 0.106 µM
concentration at 48 h [32]: 871 nM
concentration at 12 h [33]: 3070 nM
half-life [34]: 2.9 h
concentration at 12 h [35]: 389 nM
